Target: 4-aminobutyrate aminotransferase, mitochondrial (Sus scrofa, UniProt P80147)
Assay: Compound was tested for the inhibitory effect against Gamma-amino-N-butyrate transaminase from pig brain

4-aminobutyrate aminotransferase, mitochondrial, sequence (P80147 whole entry): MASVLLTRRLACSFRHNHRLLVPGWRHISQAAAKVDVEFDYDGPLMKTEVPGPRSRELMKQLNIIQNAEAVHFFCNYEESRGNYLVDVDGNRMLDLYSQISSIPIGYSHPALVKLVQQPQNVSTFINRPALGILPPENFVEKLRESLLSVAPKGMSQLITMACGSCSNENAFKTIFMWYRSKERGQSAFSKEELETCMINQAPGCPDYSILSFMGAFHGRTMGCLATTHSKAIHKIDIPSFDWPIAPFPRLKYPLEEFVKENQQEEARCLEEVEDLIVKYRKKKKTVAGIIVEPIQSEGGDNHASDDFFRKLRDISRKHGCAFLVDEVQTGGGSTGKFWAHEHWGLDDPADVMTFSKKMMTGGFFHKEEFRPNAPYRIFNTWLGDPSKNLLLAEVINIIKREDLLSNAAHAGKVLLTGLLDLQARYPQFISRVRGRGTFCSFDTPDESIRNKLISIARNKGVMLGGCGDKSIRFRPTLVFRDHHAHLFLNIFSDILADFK

| Ki | SMILES |
| --- | --- |
| 5 µM | NC/C=C(\CO)C(=O)O |
| 24 µM | NC/C=C(\CCl)C(=O)O |

| SMILES | Ki |
| --- | --- |
| NC/C=C(\CF)C(=O)O | 19 µM |

Reference: ChEMBL document CHEMBL1123179, “4-Amino-2-(substituted methyl)-2-butenoic acids: substrates and potent inhibitors of gamma-aminobutyric acid aminotransferase” (J Med Chem, 1986)
